# Legend:
# [1] = tested on: 69 mutant plants; assay: Rescue of mutant phenotype by external application of bioactive GA3, 69 line; format: in vivo, Arabidopsis
# Source text: (§1) These phenotypes are similar to loss-of-function alleles of GA biosynthetic enzymes. […] Additionally, other GA forms were also substantially lower in the L10 and 69 lines (Table 4). Both mutant phenotypes could be rescued by the external application of bioactive GA3, which is consistent with the notion that the phenotypes were a result of reduced levels of bioactive GAs.
# [2] = tested on: L10 mutant plants; assay: Rescue of mutant phenotype by external application of bioactive GA3, L10 line; format: in vivo, Arabidopsis
# Source text: as §1
smiles,measurement,setting,value
C=C1C[C@]23C[C@@]1(O)CC[C@H]2[C@@]12C=C[C@H](O)[C@@](C)(C(=O)O1)[C@H]2[C@@H]3C(=O)O [GA3],Flowering Time LD (Number of Leaves),[1]; GA3-treated 69 plants,8 Number of Leaves
same,Height,[1]; GA3-treated 69 plants,30 cm
same,Internode Length,[1]; GA3-treated 69 plants,7 mm
same,Number of Flowering Branches,[1]; GA3-treated 69 plants,65
same,Rescue of mutant phenotype,[1]; external application of GA3 to 69 mutant,rescued
same,Flowering Time LD (Number of Leaves),[2]; GA3-treated L10 plants,8 Number of Leaves
same,Height,[2]; GA3-treated L10 plants,30 cm
same,Internode Length,[2]; GA3-treated L10 plants,7 mm
same,Number of Flowering Branches,[2]; GA3-treated L10 plants,65
same,Rescue of mutant phenotype,[2]; external application of GA3 to L10 mutant,rescued
